Source: ChEMBL document CHEMBL5113453, “Design, synthesis, and biological evaluation of a new series of pyrazole derivatives: Discovery of potent and selective JNK3 kinase inhibitors” (Bioorg Med Chem, 2022)

Legend:
HCT-116 = experiment: Antiproliferative activity against human HCT-116 cells measured after 48 hrs by SRB assay; format: functional, cell-based
OVCAR-8 = experiment: Antiproliferative activity against human OVCAR-8 cells measured after 48 hrs by SRB assay; format: functional, cell-based
SK-MEL-5 = experiment: Antiproliferative activity against human SK-MEL-5 cells measured after 48 hrs by SRB assay; format: functional, cell-based
A498 = experiment: Antiproliferative activity against human A498 cells measured after 48 hrs by SRB assay; format: functional, cell-based
BT-549 = experiment: Antiproliferative activity against human BT-549 cells measured after 48 hrs by SRB assay; format: functional, cell-based
NCI-H226 = experiment: Antiproliferative activity against human NCI-H226 cells measured after 48 hrs by SRB assay; format: functional, cell-based
K562 = experiment: Antiproliferative activity against human K562 cells measured after 48 hrs by SRB assay; format: functional, cell-based
U-251 = experiment: Antiproliferative activity against human U-251 cells measured after 48 hrs by SRB assay; format: functional, cell-based
RPMI-8226 = experiment: Antiproliferative activity against human RPMI-8226 cells measured after 48 hrs by SRB assay; format: functional, cell-based
HOP-92 = experiment: Antiproliferative activity against human HOP-92 cells measured after 48 hrs by SRB assay; format: functional, cell-based
SK-OV-3 = experiment: Antiproliferative activity against human SK-OV-3 cells measured after 48 hrs by SRB assay; format: functional, cell-based
SF-295 = experiment: Antiproliferative activity against human SF-295 cells measured after 48 hrs by SRB assay; format: functional, cell-based
SN12C = experiment: Antiproliferative activity against human SN12C cells measured after 48 hrs by SRB assay; format: functional, cell-based
T47D = experiment: Antiproliferative activity against human T47D cells measured after 48 hrs by SRB assay; format: functional, cell-based
UACC-62 = experiment: Antiproliferative activity against human UACC-62 cells measured after 48 hrs by SRB assay; format: functional, cell-based
SW-620 = experiment: Antiproliferative activity against human SW-620 cells measured after 48 hrs by SRB assay; format: functional, cell-based
COLO 205 = experiment: Antiproliferative activity against human COLO 205 cells measured after 48 hrs by SRB assay; format: functional, cell-based
WI-38 = experiment: Antiproliferative activity against human WI-38 cells measured by MTT assay; format: functional, cell-based
[1] = molecular target: T1, Mitogen-activated protein kinase 10 (Homo sapiens, UniProt P53779); experiment: Inhibition of JNK3 (unknown origin)
SK-MEL-2 = experiment: Antiproliferative activity against human SK-MEL-2 cells measured after 48 hrs by SRB assay; format: functional, cell-based
DU-145 = experiment: Antiproliferative activity against human DU-145 cells measured after 48 hrs by SRB assay; format: functional, cell-based
HT-29 = experiment: Antiproliferative activity against human HT-29 cells measured after 48 hrs by SRB assay; format: functional, cell-based
HCT-15 = experiment: Antiproliferative activity against human HCT-15 cells measured after 48 hrs by SRB assay; format: functional, cell-based
MOLT-4 = experiment: Antiproliferative activity against human MOLT-4 cells measured after 48 hrs by SRB assay; format: functional, cell-based
HL-60(TB) = experiment: Antiproliferative activity against human HL-60(TB) cells measured after 48 hrs by SRB assay; format: functional, cell-based
SK-MEL-28 = experiment: Antiproliferative activity against human SK-MEL-28 cells measured after 48 hrs by SRB assay; format: functional, cell-based
SF-268 = experiment: Antiproliferative activity against human SF-268 cells measured after 48 hrs by SRB assay; format: functional, cell-based
NCI-H23 = experiment: Antiproliferative activity against human NCI-H23 cells measured after 48 hrs by SRB assay; format: functional, cell-based
NCI-H460 = experiment: Antiproliferative activity against human NCI-H460 cells measured after 48 hrs by SRB assay; format: functional, cell-based
OVCAR-5 = experiment: Antiproliferative activity against human OVCAR-5 cells measured after 48 hrs by SRB assay; format: functional, cell-based
HOP-62 = experiment: Antiproliferative activity against human HOP-62 cells measured after 48 hrs by SRB assay; format: functional, cell-based
SNB-19 = experiment: Antiproliferative activity against human SNB-19 cells measured after 48 hrs by SRB assay; format: functional, cell-based
OVCAR-4 = experiment: Antiproliferative activity against human OVCAR-4 cells measured after 48 hrs by SRB assay; format: functional, cell-based
ACHN = experiment: Antiproliferative activity against human ACHN cells measured after 48 hrs by SRB assay; format: functional, cell-based
MDA-MB-468 = experiment: Antiproliferative activity against human MDA-MB-468 cells measured after 48 hrs by SRB assay; format: functional, cell-based
UO-31 = experiment: Antiproliferative activity against human UO-31 cells measured after 48 hrs by SRB assay; format: functional, cell-based
NCI-H522 = experiment: Antiproliferative activity against human NCI-H522 cells measured after 48 hrs by SRB assay; format: functional, cell-based
A549 = experiment: Antiproliferative activity against human A549 cells measured after 48 hrs by SRB assay; format: functional, cell-based
[2] = molecular target: T1, Mitogen-activated protein kinase 10; experiment: Inhibition of JNK3 (unknown origin) at 1 uM relative to control

T1 sequence (P53779 whole entry): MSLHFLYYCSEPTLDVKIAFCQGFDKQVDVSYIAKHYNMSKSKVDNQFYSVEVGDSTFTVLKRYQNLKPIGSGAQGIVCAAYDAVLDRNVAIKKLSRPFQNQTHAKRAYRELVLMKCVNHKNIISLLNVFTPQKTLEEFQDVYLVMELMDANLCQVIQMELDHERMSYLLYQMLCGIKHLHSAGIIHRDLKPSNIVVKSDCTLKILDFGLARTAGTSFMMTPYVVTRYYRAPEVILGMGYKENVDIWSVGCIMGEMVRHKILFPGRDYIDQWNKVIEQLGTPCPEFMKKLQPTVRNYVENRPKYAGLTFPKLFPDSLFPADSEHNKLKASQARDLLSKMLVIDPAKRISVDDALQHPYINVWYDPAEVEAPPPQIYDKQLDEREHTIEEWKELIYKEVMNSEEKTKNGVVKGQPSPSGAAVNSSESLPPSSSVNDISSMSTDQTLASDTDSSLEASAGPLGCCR

## O=C(NCCCNc1cc(-c2cn(-c3ccccc3)nc2-c2cccc(O)c2)ccn1)Nc1cccc(C(F)(F)F)c1
HCT-116; HCT-116, 48 h
  IC50: 1.97 µM
HCT-116; HCT-116, time 48 hrs
  TGI: 6.33 µM
OVCAR-8; OVCAR-8, 48 h
  IC50: 3.88 µM
OVCAR-8; OVCAR-8, time 48 hrs
  TGI: 10 µM
SK-MEL-5; SK-MEL-5, 48 h
  IC50: 3.25 µM
SK-MEL-5; SK-MEL-5, time 48 hrs
  TGI: 7.17 µM
A498; A498, 48 h
  IC50: 3.17 µM
A498; A498, time 48 hrs
  TGI: 7.18 µM
BT-549; BT-549, 48 h
  IC50: 3.26 µM
BT-549; BT-549, time 48 hrs
  TGI: 7.63 µM
NCI-H226; NCI-H226, 48 h
  IC50: 4.88 µM
NCI-H226; NCI-H226, time 48 hrs
  TGI: 11.5 µM
K562; K562, 48 h
  IC50: 1.26 µM
K562; K562, time 48 hrs
  TGI: > 14.5 µM
U-251; U-251, 48 h
  IC50: 2.57 µM
U-251; U-251, time 48 hrs
  TGI: 7.45 µM
RPMI-8226; RPMI-8226, 48 h
  IC50: 0.73 µM
RPMI-8226; RPMI-8226, time 48 hrs
  TGI: 6.12 µM
HOP-92; HOP-92, 48 h
  IC50: 1.25 µM
HOP-92; HOP-92, time 48 hrs
  TGI: 6.01 µM
SK-OV-3; SK-OV-3, 48 h
  IC50: 4.49 µM
SK-OV-3; SK-OV-3, time 48 hrs
  TGI: 10.1 µM
SF-295; SF-295, 48 h
  IC50: 1.76 µM
SF-295; SF-295, time 48 hrs
  TGI: 6.42 µM
SN12C; 48 h
  IC50: 3.65 µM
SN12C; time 48 hrs
  TGI: 7.91 µM
T47D; 48 h
  IC50: 3.42 µM
T47D; time 48 hrs
  TGI: 16.7 µM
UACC-62; UACC-62, 48 h
  IC50: 4.41 µM
UACC-62; UACC-62, time 48 hrs
  TGI: 8.84 µM
SW-620; SW-620, 48 h
  IC50: 3.85 µM
SW-620; SW-620, time 48 hrs
  TGI: 8.31 µM
COLO 205; COLO 205, 48 h
  IC50: 2.97 µM
COLO 205; COLO 205, time 48 hrs
  TGI: 8.72 µM
WI-38
  IC50: 13.6 µM
[1]
  IC50: 0.474 µM
SK-MEL-2; SK-MEL-2, 48 h
  IC50: 5.29 µM
SK-MEL-2; SK-MEL-2, time 48 hrs
  TGI: 11.7 µM
DU-145; DU-145, 48 h
  IC50: 4.8 µM
DU-145; DU-145, time 48 hrs
  TGI: 11.9 µM
HT-29; HT-29, 48 h
  IC50: 1.51 µM
HT-29; HT-29, time 48 hrs
  TGI: 6.19 µM
HCT-15; HCT-15, 48 h
  IC50: 1.06 µM
HCT-15; HCT-15, time 48 hrs
  TGI: 4.32 µM
MOLT-4; MOLT-4, 48 h
  IC50: 1.67 µM
MOLT-4; MOLT-4, time 48 hrs
  TGI: 15 µM
HL-60(TB); HL-60, 48 h
  IC50: 3.42 µM
HL-60(TB); HL-60, time 48 hrs
  TGI: 14.5 µM
SK-MEL-28; SK-MEL-28, 48 h
  IC50: 3.48 µM
SK-MEL-28; SK-MEL-28, time 48 hrs
  TGI: 7.51 µM
SF-268; SF-268, 48 h
  IC50: 3.26 µM
SF-268; SF-268, time 48 hrs
  TGI: 9.69 µM
NCI-H23; NCI-H23, 48 h
  IC50: 4.34 µM
NCI-H23; NCI-H23, time 48 hrs
  TGI: 9.34 µM
NCI-H460; NCI-H460, 48 h
  IC50: 3.48 µM
NCI-H460; NCI-H460, time 48 hrs
  TGI: 8.89 µM
OVCAR-5; OVCAR-5, 48 h
  IC50: 3.96 µM
OVCAR-5; OVCAR-5, time 48 hrs
  TGI: 9.71 µM
HOP-62; HOP-62, 48 h
  IC50: 4.09 µM
HOP-62; HOP-62, time 48 hrs
  TGI: 9.59 µM
SNB-19; SNB-19, 48 h
  IC50: 3.99 µM
SNB-19; SNB-19, time 48 hrs
  TGI: 8.97 µM
OVCAR-4; OVCAR-4, 48 h
  IC50: 2.13 µM
OVCAR-4; OVCAR-4, time 48 hrs
  TGI: 7.75 µM
ACHN; 48 h
  IC50: 5.24 µM
ACHN; time 48 hrs
  TGI: 15.5 µM
MDA-MB-468; MDA-MB-468, 48 h
  IC50: 1.61 µM
MDA-MB-468; MDA-MB-468, time 48 hrs
  TGI: 6.16 µM
UO-31; UO-31, 48 h
  IC50: 2.1 µM
UO-31; UO-31, time 48 hrs
  TGI: 10.8 µM
NCI-H522; NCI-H522, 48 h
  IC50: 5.12 µM
NCI-H522; NCI-H522, time 48 hrs
  TGI: 11 µM
A549; A549, 48 h
  IC50: 3.35 µM
A549; A549, time 48 hrs
  TGI: 11.2 µM
[2]
  inhibition: 73%
